Source: US8574604B2, “Methods and compositions for the delivery of biologically active agents” (Interface Biologics, Inc., priority 2005, dated 2013)

Test: UV/Vis measurement of Methyl Violet complexation by CyD-OF
Type: physicochemical
Details: Methyl Violet 0.01 mg/mL in DMSO; decrease in absorbance indicates complexation
Description: CyD-OF (3a) ([…]) was dissolved in DMSO (75 μL). A solution of Methyl Violet (MV, 2.8 mg) in DMSO (28 mL) was prepared at 0.1 mg/mL. One mL of Methyl Violet solution was further diluted with DMSO (10 mL) to form a 0.01 mg/mL solution. The CyD-OF solution (75 μL) was added dropwise to a solution of MV (500 μL) in a 4 mL glass vial over the course of ten minutes. This solution was sealed and left in the dark for 12 hours. A UV/Vis measurement of the Methyl Violet solution at 0.01 mg/mL was taken (A (591 nm)=0.96) as control. The UV/Vis spectrum of the CyD-OF was measured at A (591 nm)=0.63, indicating the intensity of the guest molecules evidently to change upon the addition of molecular receptors. Upon complexation the absorbance decreased, confirming the formation of a complex. A control solution was also prepared.

Substance: Methyl Violet
- UV/Vis absorbance A (591 nm): 0.96
